From patent US20140112878A1, “Tyrosinase Inhibitor” (priority 2012, published 2014)

Tests used:
[1] = target: T1, human tyrosinase (neonatal epidermal melanocyte extract) (Homo sapiens, UniProt P14679); test: DOPA oxidase activity (MBTH method) in cell extract; type: biochemical; conditions: for DOPA oxidase activity, value relative to that of the control: N=3; for DOPA oxidase activity suppressive effect (in words): IPMP 0.00075 to 0.015 w/v %
T1 construct: host or cells: normal human neonatal epidermal melanocytes (NHEMs), detergent/ultrasonication lysate supernatant
T1 sequence (P14679 19-529): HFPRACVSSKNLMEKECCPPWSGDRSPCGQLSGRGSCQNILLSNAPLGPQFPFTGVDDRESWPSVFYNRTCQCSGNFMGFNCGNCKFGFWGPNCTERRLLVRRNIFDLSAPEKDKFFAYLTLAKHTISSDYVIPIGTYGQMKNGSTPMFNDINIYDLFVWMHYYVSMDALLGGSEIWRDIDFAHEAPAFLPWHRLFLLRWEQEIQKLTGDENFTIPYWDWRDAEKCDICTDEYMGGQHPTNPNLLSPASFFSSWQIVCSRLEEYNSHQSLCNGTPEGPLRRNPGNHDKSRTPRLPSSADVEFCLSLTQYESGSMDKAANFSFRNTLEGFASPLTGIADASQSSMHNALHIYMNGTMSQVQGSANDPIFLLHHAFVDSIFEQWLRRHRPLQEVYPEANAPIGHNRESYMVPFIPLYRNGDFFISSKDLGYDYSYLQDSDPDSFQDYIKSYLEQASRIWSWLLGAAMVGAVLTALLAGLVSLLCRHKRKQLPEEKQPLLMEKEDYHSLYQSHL
Description: The cells were then treated with ultrasonication, and were centrifuged at 15000 r.p.m. for 10 minutes, and the supernatant was obtained.
Tyrosinase activity was measured using the cell extract mentioned above. […] Then, 20 μL of the following test compounds were added to the wells so that the mixture reaches the final concentration shown in Table 1.

[2] = tested on: Normal human neonatal epidermal melanocytes (NHEMs); test: Alamar blue cell respiration activity (cell toxicity); type: cell-based; conditions: for Alamar blue (cell toxicity) AVE: cultured NHEMs
Description: (§1) Medium 254 containing a PMA-free growth supplement (HMGS) was used as a medium.
(§2) After cultivating for 3 days, Endotheline-1 (ET-1), SCF, α-MSH, Histamine, and PGE2, each prepared to be the final concentration of 1 nM in the medium, were added. The same test compounds used in Example 1 were also added so as to reach the final concentration. The mixture was cultured at 37° C. for 3 days, in the presence of 5% CO2. The same amount of DMSO was added as a control.
After the completion of the cultivation, 20 L/well of alamar blue reagent (Invitrogen Corporation) was added. After incubating for 2 to 3 hours, the fluorescence intensity of the medium was measured to monitor the cell respiration activity. Then, the cells were washed with PBS, and 20 μL/well of extraction buffer (0.1 M Tris-HCL (pH 7.2), 1% NP-40, 0.01% SDS, 100 μM PMSF, 1 μg/m aprotinin) and 20 μL/well of Assay Buffer (4% dimethylformamide, 100 mM Sodium phosphate-buffered (pH 7.1)) were added. The cells were solubilized at 4° C. for 3 hours, and DOPA oxidase activity was measured.

[3] = tested on: mushroom-derived tyrosinase; conditions: reported in JP-A-9-249544; cited from earlier work
[4] = tested on: mouse melanoma B-16 cells; conditions: reported in JP-A-9-249544; cited from earlier work
[5] = target: T2, tyrosinase (DOPA oxidase activity) in normal human neonatal epidermal melanocytes (NHEMs) (Homo sapiens, UniProt P14679); test: DOPA oxidase activity in cultured normal human neonatal epidermal melanocytes
T2 sequence (P14679 19-529): T1 sequence (P14679 19-529)
Description: as §1, §2
After the completion of the cultivation, 20 L/well of alamar blue reagent (Invitrogen Corporation) was added. After incubating for 2 to 3 hours, the fluorescence intensity of the medium was measured to monitor the cell respiration activity. Then, the cells were washed with PBS, and 20 μL/well of extraction buffer (0.1 M Tris-HCL (pH 7.2), 1% NP-40, 0.01% SDS, 100 μM PMSF, 1 μg/m aprotinin) and 20 μL/well of Assay Buffer (4% dimethylformamide, 100 mM Sodium phosphate-buffered (pH 7.1)) were added. The cells were solubilized at 4° C. for 3 hours, and DOPA oxidase activity was measured. DOPA oxidase activity was measured according to the following method, with reference to the MBTH method (Winder A. et al., 1991, Eur. J. Biochem. 198:317-326).
80 μL of the above-mentioned Assay Buffer, 60 μL of 20.7 mM MBTH (3-methyl-2-benzothiazolinone hydrazone) solution, and 40 μL of 5 mM L-DOPA (L-dihydroxyphenylalanine) solution as a substrate, were added to each well of solubilized cell solution, and the mixture was allowed for reaction at 37° C. for 30 to 60 minutes. Then the color reaction was measured based on absorbance at 490 nm (N=3). The measurements are expressed as values relative to that of the control.

[6] = 10 μM (IPMP 0.00015 w/v %), 3 days, Example 2
[7] = 100 μM (IPMP 0.0015 w/v %), 3 days, Example 2
[8] = 0.67 μM (0.00001 w/v %), Example 3
[9] = 167.5 μM (0.0025 w/v %), Example 3

SMILES | DOPA oxidase activity, value relative to that of the control ([1]; 50 μM (IPMP 0.00075%)) | DOPA oxidase activity, value relative to that of the control ([1]; 100 μM (IPMP […])) | DOPA oxidase activity, value relative to that of the control ([1]; 500 μM (IPMP 0.0075%)) | DOPA oxidase activity, value relative to that of the control ([1]; 1000 μM (IPMP […])) | DOPA oxidase activity suppressive effect (in words) [1] | Alamar blue (cell toxicity) AVE [2, 6] | Alamar blue (cell toxicity) AVE [2, 7] | Inhibitory activity on mushroom-derived tyrosinase (in words) [3] | Suppressive effect on melanin production (in words) [4] | DOPA oxidase activity AVE, relative to control [5, 6] | DOPA oxidase activity AVE, relative to control [5, 7] | DOPA oxidase activity suppressive effect (in words) ([5]; Example 2) | further results
Cc1ccc(C(C)C)c(O)c1 [compound 1, thymol] | 103.7 ± 0.9 | 93.8 ± 1.6 | 104.4 ± 0.8 | 105.4 ± 0.5 | did not show DOPA oxidase activity suppressive effect | 84.9 | 104.4 | exhibit inhibitory activity on mushroom-derived tyrosinase | exhibit suppressive effect on melanin production | 98.6 | 95 | did not show DOPA oxidase activity suppressive effect | –
O=c1cc(CO)occ1O [Kojic acid] | – | – | – | – | – | 118.3 | 114.4 | – | – | – | – | – | –
Cc1cc(O)ccc1C(C)C [IPMP, isopropylmethylphenol] | 83.1 ± 3.9 | 62.9 ± 3.5 | 32.8 ± 3.7 | 19.8 ± 1.2 | – | 94.1 | 127 | – | – | 74.8 | 50.6 | – | Alamar blue (cell toxicity) AVE [2, 8]: 84.9; Alamar blue (cell toxicity) AVE ([2]; 6.7 μM (6.0001 w/v %), Example 3): 85.4; Effect on cell growth (in words) ([2]; 0.00001 to 0.0025 w/v %, Example 3): did not affect cell growth; Alamar blue (cell toxicity) AVE ([2]; 67 μM (0.001 w/v %), Example 3): 78.9; Alamar blue (cell toxicity) AVE [2, 9]: 77.0; Effect on cell growth (alamar blue method, in words) ([2]; at the concentration which showed DOPA oxidase activity suppressive effect, Example 2): did not affect cell growth; DOPA oxidase activity AVE, relative to control [5, 8]: 73.7; DOPA oxidase activity AVE, relative to control ([5]; 6.7 μM, Example 3): 56.5; DOPA oxidase activity AVE, relative to control ([5]; 67 μM (0.001 w/v %), Example 3): 33.9; DOPA oxidase activity AVE, relative to control [5, 9]: 25.6
Cc1ccc(C(C)C)cc1O [compound 2, carvacrol] | 102.1 ± 0.5 | 96.9 ± 1.8 | 99.6 ± 1.8 | 97.8 ± 1.9 | did not show DOPA oxidase activity suppressive effect | 94.2 | 115.2 | exhibit inhibitory activity on mushroom-derived tyrosinase | exhibit suppressive effect on melanin production | 99.3 | 96.3 | did not show DOPA oxidase activity suppressive effect | –
